Experimental findings from patent US20080096990A1, “Flame Retardant Polystyrene Foam Compositions” (priority 2004, published 2008) are described below.

This data set is described as follows: Solubility of flame retardant in styrene. It counts as physicochemical.

The structures appear in SMILES notation.

As for `O=C1C2C3CC(C(Br)C3Br)C2C(=O)N1CCN1C(=O)C2C3CC(C(Br)C3Br)C2C1=O` (stereo not drawn) [BN-451, reference compound], for the setting “at 25° C.”, the Solubility is <0.1 wt %.

On to `CN1C(=O)C2CC(Br)C(Br)CC2C1=O` (stereo not drawn) [III], for which, where the note is “at 25° C.”, the Solubility is on record as >5 wt %.

For `O=C1NC(=O)C2CC(Br)C(Br)CC12` (stereo not drawn) [II], the Solubility (at 40° C.) is given as >1 wt %.
